Test results from article PMC8632988, “Inhibition of SYK and cSrc kinases can protect bone and cartilage in preclinical models of osteoarthritis and rheumatoid arthritis” (Scientific Reports, 2021).

Assays:
Experiment in all cases: Kinase selectivity profile assay
Format in all cases: biochemical
Details in all cases: 500 nM; relative to DMSO; read-out: Residual enzymatic activity
ASK1/MAP3K5 = molecular target: T1, ASK1/MAP3K5 (Homo sapiens, UniProt Q99683)
T1 construct: purchased Reaction Biology Corporation
In short: (§1)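 Radiometric kinase assay run by a standard protocol. Unbound phosphate was removed by washing filters in phosphoric acid, and product radioactivity gave percent remaining kinase activity versus DMSO vehicle reactions. Run in duplicate.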

AXL = molecular target: T2, AXL (Homo sapiens, UniProt P30530)
T2 construct: purchased Reaction Biology Corporation
In short: as §1

BLK = molecular target: T3, BLK (Homo sapiens, UniProt P51451)
T3 construct: purchased Reaction Biology Corporation (assay service)
In short: as §1

BTK = molecular target: T4, BTK (Homo sapiens, UniProt Q06187)
T4 construct: purchased Reaction Biology Corporation
In short: as §1

CAMK2b = molecular target: T5, CAMK2b (Homo sapiens, UniProt Q13554)
T5 construct: purchased Reaction Biology Corporation
In short: as §1

CDK9/cyclin T1 = molecular target: T6, CDK9/cyclin T1 (Homo sapiens, UniProt P50750)
T6 construct: purchased Reaction Biology Corporation
In short: as §1

CHK2 = molecular target: T7, CHK2 (Homo sapiens, UniProt O96017)
T7 construct: purchased Reaction Biology Corporation
In short: as §1

CK1g1 = molecular target: T8, CK1g1 (Homo sapiens, UniProt Q9HCP0)
T8 construct: purchased Reaction Biology Corporation
In short: as §1

CLK1 = molecular target: T9, CLK1 (Homo sapiens, UniProt P49759)
T9 construct: purchased Reaction Biology Corporation
In short: as §1

CLK4 = molecular target: T10, CLK4 (Homo sapiens, UniProt Q9HAZ1)
T10 construct: purchased Reaction Biology Corporation
In short: as §1

DAPK1 = molecular target: T11, DAPK1 (Homo sapiens, UniProt P53355)
T11 construct: purchased Reaction Biology Corporation
In short: as §1

DCAMKL1 = molecular target: T12, DCAMKL1 (Homo sapiens, UniProt O15075)
T12 construct: purchased Reaction Biology Corporation
In short: as §1

DDR1 = molecular target: T13, DDR1 (Homo sapiens, UniProt Q08345)
T13 construct: purchased Reaction Biology Corporation (assay service)
In short: as §1

DYRK1/DYRK1A = molecular target: T14, DYRK1/DYRK1A (Homo sapiens, UniProt Q13627)
T14 construct: purchased Reaction Biology Corporation
In short: as §1

DYRK2 = molecular target: T15, DYRK2 (Homo sapiens, UniProt Q92630)
T15 construct: purchased Reaction Biology Corporation
In short: as §1

ERK5/MAPK7 = molecular target: T16, ERK5/MAPK7 (Homo sapiens, UniProt Q13164)
T16 construct: purchased Reaction Biology Corporation
In short: as §1

FAK/PTK2 = molecular target: T17, FAK/PTK2 (Homo sapiens, UniProt Q05397)
T17 construct: purchased Reaction Biology Corporation
In short: as §1

FLT1/VEGFR1 = molecular target: T18, FLT1/VEGFR1 (Homo sapiens, UniProt P17948)
T18 construct: purchased Reaction Biology Corporation
In short: as §1

FMS = molecular target: T19, FMS (Homo sapiens, UniProt P07333)
T19 construct: purchased Reaction Biology Corporation
In short: as §1

GRK4 = molecular target: T20, GRK4 (Homo sapiens, UniProt P32298)
T20 construct: purchased Reaction Biology Corporation
In short: as §1

GSK3a = molecular target: T21, GSK3a (Homo sapiens, UniProt P49840)
T21 construct: purchased Reaction Biology Corporation
In short: as §1

IGF1R = molecular target: T22, IGF1R (Homo sapiens, UniProt P08069)
T22 construct: purchased Reaction Biology Corporation
In short: as §1

MEK2 = molecular target: T23, MEK2 (Homo sapiens, UniProt P36507)
T23 construct: purchased Reaction Biology Corporation
In short: as §1

MEKK3 = molecular target: T24, MEKK3 (Homo sapiens, UniProt Q99759)
T24 construct: purchased Reaction Biology Corporation
In short: as §1

MELK = molecular target: T25, MELK (Homo sapiens, UniProt Q14680)
T25 construct: purchased Reaction Biology Corporation
In short: as §1

MINK/MINK1 = molecular target: T26, MINK/MINK1 (Homo sapiens, UniProt Q8N4C8)
T26 construct: purchased Reaction Biology Corporation
In short: as §1

MSSK1/STK23 = molecular target: T27, MSSK1/STK23 (Homo sapiens, UniProt Q9UPE1)
T27 construct: purchased Reaction Biology Corporation
In short: as §1

OSR1/OXSR1 = molecular target: T28, OSR1/OXSR1 (Homo sapiens, UniProt O95747)
T28 construct: purchased Reaction Biology Corporation
In short: as §1

PIM2 = molecular target: T29, PIM2 (Homo sapiens, UniProt Q9P1W9)
T29 construct: purchased Reaction Biology Corporation
In short: as §1

PKCnu/PRKD3 = molecular target: T30, PKCnu/PRKD3 (Homo sapiens, UniProt O94806)
T30 construct: purchased Reaction Biology Corporation
In short: as §1

PKN1/PRK1 = molecular target: T31, PKN1/PRK1 (Homo sapiens, UniProt Q16512)
T31 construct: purchased Reaction Biology Corporation
In short: as §1

SGK3/SGKL = molecular target: T32, SGK3/SGKL (Homo sapiens, UniProt Q96BR1)
T32 construct: purchased Reaction Biology Corporation
In short: as §1

STK33 = molecular target: T33, STK33 (Homo sapiens, UniProt Q9BYT3)
T33 construct: purchased Reaction Biology Corporation
In short: as §1

STK38L/NDR2 = molecular target: T34, STK38L/NDR2 (Homo sapiens, UniProt Q9Y2H1)
T34 construct: purchased Reaction Biology Corporation
In short: as §1

TTBK1 = molecular target: T35, TTBK1 (Homo sapiens, UniProt Q5TCY1)
T35 construct: purchased Reaction Biology Corporation
In short: as §1

TTBK2 = molecular target: T36, TTBK2 (Homo sapiens, UniProt Q6IQ55)
T36 construct: purchased Reaction Biology Corporation
In short: as §1

TYK2 = molecular target: T37, TYK2 (Homo sapiens, UniProt P29597)
T37 construct: purchased Reaction Biology Corporation
In short: as §1

WNK3 = molecular target: T38, WNK3 (Homo sapiens, UniProt Q9BYP7)
T38 construct: purchased Reaction Biology Corporation
In short: as §1

ZAK/MLTK = molecular target: T39, ZAK/MLTK (Homo sapiens, UniProt Q9NYL2)
T39 construct: purchased Reaction Biology Corporation
In short: as §1

c-MET = molecular target: T40, c-MET (Homo sapiens, UniProt P08581)
T40 construct: purchased Reaction Biology Corporation
In short: as §1

T13 sequence (Q08345 19-913): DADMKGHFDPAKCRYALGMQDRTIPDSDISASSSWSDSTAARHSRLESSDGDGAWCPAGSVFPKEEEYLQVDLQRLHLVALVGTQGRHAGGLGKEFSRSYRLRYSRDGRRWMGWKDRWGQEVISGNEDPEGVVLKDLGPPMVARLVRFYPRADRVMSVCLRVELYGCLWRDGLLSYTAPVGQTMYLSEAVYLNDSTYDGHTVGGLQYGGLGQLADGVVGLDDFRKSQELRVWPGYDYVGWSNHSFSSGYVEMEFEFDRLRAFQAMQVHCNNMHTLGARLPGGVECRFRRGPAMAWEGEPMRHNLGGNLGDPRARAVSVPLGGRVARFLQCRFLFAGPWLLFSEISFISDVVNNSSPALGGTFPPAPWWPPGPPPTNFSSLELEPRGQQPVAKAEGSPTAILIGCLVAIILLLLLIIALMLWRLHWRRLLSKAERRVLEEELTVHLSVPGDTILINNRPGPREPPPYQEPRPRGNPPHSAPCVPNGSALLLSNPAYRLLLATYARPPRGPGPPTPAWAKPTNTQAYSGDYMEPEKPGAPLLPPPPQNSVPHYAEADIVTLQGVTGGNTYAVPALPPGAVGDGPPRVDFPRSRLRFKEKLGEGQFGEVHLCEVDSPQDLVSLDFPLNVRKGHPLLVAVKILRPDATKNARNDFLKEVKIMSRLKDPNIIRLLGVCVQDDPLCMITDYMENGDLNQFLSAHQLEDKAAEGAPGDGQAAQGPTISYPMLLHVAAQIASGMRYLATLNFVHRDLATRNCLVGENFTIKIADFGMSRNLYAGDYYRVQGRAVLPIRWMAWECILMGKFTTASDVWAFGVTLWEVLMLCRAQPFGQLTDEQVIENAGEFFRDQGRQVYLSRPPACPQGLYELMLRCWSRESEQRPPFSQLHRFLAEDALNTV
T10 sequence (Q9HAZ1 whole entry): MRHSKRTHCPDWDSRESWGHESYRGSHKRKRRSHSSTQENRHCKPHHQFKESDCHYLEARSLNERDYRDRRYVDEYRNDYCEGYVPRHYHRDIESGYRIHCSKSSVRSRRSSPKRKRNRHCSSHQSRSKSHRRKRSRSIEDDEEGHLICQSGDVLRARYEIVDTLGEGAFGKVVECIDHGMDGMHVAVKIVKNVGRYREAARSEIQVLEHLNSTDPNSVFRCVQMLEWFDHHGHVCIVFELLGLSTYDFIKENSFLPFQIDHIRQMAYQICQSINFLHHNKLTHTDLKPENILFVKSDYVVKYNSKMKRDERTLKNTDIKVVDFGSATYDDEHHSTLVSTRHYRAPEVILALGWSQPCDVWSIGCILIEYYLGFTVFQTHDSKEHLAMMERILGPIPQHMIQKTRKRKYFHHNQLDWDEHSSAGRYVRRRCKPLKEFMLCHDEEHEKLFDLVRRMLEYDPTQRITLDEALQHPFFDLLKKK
T39 sequence (Q9NYL2 whole entry): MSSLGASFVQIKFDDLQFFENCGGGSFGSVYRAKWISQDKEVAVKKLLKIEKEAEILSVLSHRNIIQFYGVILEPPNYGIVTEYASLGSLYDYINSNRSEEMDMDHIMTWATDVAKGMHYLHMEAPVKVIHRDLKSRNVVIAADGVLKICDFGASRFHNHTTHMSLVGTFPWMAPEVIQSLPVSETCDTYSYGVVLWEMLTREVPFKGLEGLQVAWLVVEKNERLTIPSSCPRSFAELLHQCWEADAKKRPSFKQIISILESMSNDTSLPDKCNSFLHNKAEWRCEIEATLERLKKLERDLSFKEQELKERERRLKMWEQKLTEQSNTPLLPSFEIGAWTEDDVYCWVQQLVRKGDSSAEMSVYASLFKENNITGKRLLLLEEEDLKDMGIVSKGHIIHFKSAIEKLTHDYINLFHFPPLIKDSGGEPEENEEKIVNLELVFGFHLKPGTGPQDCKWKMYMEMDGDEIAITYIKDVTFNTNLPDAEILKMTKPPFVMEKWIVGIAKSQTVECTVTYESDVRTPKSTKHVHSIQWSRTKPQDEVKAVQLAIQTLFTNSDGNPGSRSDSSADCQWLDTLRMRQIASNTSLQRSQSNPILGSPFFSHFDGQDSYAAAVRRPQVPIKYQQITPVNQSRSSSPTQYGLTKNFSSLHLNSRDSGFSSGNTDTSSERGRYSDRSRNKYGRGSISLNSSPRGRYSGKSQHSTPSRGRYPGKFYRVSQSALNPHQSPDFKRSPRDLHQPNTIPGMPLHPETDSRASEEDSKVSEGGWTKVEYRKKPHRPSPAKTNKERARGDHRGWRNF
T8 sequence (Q9HCP0 whole entry): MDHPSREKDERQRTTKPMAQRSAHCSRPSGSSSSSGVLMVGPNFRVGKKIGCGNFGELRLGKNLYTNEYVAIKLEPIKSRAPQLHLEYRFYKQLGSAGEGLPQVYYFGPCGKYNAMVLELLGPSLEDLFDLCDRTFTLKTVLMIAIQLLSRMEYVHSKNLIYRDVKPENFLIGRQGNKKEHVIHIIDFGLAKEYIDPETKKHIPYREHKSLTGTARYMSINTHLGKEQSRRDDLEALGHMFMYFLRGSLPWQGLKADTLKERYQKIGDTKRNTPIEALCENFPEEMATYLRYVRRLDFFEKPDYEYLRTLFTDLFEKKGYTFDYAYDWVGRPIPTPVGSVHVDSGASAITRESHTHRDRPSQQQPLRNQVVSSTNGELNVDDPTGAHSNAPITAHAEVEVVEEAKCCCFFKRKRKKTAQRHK
T4 sequence (Q06187 whole entry): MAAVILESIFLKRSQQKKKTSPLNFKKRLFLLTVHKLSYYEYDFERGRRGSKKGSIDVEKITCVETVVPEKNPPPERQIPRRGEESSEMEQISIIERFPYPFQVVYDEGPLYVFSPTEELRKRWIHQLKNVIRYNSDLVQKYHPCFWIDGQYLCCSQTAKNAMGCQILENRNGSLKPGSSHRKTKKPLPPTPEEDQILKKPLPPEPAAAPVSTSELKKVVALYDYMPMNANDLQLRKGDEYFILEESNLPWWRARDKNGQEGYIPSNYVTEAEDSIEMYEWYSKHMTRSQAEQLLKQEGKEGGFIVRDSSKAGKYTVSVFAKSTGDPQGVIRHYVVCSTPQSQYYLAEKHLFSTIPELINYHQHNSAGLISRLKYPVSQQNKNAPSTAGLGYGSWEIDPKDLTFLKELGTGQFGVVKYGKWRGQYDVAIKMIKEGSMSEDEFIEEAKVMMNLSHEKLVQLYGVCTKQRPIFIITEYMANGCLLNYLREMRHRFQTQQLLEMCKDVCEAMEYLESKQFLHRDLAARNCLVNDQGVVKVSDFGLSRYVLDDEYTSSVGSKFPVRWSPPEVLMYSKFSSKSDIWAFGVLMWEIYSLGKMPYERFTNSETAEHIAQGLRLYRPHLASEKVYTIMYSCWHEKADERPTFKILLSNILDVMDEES
T23 sequence (P36507 whole entry): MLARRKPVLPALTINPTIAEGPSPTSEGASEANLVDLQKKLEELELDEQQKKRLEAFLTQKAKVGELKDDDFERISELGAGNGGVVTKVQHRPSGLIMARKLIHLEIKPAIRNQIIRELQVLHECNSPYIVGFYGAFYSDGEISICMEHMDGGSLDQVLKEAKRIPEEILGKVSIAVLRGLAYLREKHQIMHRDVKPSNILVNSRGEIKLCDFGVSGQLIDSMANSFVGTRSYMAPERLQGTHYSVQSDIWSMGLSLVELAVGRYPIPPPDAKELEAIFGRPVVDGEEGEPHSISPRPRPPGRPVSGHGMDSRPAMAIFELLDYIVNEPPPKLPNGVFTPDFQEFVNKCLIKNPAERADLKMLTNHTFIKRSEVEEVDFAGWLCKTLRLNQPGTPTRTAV
T17 sequence (Q05397 whole entry): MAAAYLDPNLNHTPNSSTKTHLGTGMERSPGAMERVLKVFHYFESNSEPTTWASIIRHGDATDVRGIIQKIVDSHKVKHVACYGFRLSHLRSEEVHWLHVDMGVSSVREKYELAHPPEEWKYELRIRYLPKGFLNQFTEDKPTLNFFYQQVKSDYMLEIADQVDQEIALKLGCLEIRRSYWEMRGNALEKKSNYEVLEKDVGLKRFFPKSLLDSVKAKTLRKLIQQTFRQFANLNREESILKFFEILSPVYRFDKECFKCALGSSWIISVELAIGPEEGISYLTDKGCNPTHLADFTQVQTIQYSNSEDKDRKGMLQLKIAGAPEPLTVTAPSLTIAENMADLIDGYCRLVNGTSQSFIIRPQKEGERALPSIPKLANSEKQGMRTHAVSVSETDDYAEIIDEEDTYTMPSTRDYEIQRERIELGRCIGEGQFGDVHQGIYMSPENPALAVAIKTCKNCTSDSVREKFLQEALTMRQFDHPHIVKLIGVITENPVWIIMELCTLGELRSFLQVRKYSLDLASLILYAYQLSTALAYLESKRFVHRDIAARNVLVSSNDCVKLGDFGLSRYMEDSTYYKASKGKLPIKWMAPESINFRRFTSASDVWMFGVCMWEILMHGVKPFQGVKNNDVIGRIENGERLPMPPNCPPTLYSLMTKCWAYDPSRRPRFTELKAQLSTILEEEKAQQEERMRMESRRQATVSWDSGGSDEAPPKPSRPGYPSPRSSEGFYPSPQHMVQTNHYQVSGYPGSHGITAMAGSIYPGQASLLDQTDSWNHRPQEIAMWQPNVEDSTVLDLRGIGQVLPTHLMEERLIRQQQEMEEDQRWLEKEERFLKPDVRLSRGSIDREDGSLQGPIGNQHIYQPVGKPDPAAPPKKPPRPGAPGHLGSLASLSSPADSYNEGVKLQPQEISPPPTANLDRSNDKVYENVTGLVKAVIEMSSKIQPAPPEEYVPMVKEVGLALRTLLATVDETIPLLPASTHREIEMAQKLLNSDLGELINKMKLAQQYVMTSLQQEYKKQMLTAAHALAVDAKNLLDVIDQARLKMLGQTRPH
T29 sequence (Q9P1W9 whole entry): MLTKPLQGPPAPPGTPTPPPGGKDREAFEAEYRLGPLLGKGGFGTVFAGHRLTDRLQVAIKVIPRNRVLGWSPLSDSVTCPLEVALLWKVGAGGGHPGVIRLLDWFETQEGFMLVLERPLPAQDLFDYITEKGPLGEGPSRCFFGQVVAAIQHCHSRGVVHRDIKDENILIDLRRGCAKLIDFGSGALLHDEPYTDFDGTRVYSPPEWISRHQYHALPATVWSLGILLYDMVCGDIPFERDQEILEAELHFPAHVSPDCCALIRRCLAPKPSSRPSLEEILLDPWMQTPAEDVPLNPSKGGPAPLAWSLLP

In the case of `COc1cc(Nc2ncc(F)c(Nc3ccc4c(n3)NC(=O)C(C)(C)O4)n2)cc(OC)c1OC` [R406, reference compound], the remaining activity at 0.5 µM (ASK1/MAP3K5) is reported as 97.1%, the remaining activity at 0.5 µM (AXL) is reported as 44.5% and the remaining activity at 0.5 µM (BLK) is reported as 16.7%. For the same compound, the remaining activity at 0.5 µM (BTK) was 28.8%, the remaining activity at 0.5 µM (CAMK2b) was 95.8% and the remaining activity at 0.5 µM (CDK9/cyclin T1) was 99.5%. It also gave a remaining activity at 0.5 µM (CHK2) of 50.7%, a remaining activity at 0.5 µM (CK1g1) of 92.7% and a remaining activity at 0.5 µM (CLK1) of 61.7%. It also gave a remaining activity at 0.5 µM (CLK4) of 52.1%, a remaining activity at 0.5 µM (DAPK1) of 65.2% and a remaining activity at 0.5 µM (DCAMKL1) of 84.2%. It also gave a remaining activity at 0.5 µM (DDR1) of 1%, a remaining activity at 0.5 µM (DYRK1/DYRK1A) of 53% and a remaining activity at 0.5 µM (DYRK2) of 64.1%. It also gave a remaining activity at 0.5 µM (ERK5/MAPK7) of 88.2%, a remaining activity at 0.5 µM (FAK/PTK2) of 29.7% and a remaining activity at 0.5 µM (FLT1/VEGFR1) of 12.4%. For the same compound, the remaining activity at 0.5 µM (FMS) was 17.2%, the remaining activity at 0.5 µM (GRK4) was 96.8% and the remaining activity at 0.5 µM (GSK3a) was 27.5%. For the same compound, the remaining activity at 0.5 µM (IGF1R) was 60.3%, the remaining activity at 0.5 µM (MEK2) was 83.5% and the remaining activity at 0.5 µM (MEKK3) was 76.1%. It also gave a remaining activity at 0.5 µM (MELK) of 54.7%, a remaining activity at 0.5 µM (MINK/MINK1) of 87.3% and a remaining activity at 0.5 µM (MSSK1/STK23) of 107%. The remaining activity at 0.5 µM (OSR1/OXSR1) was 97.2%, the remaining activity at 0.5 µM (PIM2) was 95.6% and the remaining activity at 0.5 µM (PKCnu/PRKD3) was 72.8%. For the same compound, the remaining activity at 0.5 µM (PKN1/PRK1) was 62.6%, the remaining activity at 0.5 µM (SGK3/SGKL) was 100% and the remaining activity at 0.5 µM (STK33) was 41.5%. The remaining activity at 0.5 µM (STK38L/NDR2) was 32.1%, the remaining activity at 0.5 µM (TTBK1) was 98.5% and the remaining activity at 0.5 µM (TTBK2) was 95.4%. For the same compound, the remaining activity at 0.5 µM (TYK2) was 10.5%, the remaining activity at 0.5 µM (WNK3) was 77.7% and the remaining activity at 0.5 µM (ZAK/MLTK) was 85.4%. For the same compound, the remaining activity at 0.5 µM (c-MET) was 71.4%.
